“And” between values parts separate entries of the source, which are not always exact repeats. Equal entries are not always repeated. Inconclusive results and toxic doses are left out.
System: AKR/Lw mice, AKR lymphoma ip, median survival T/C
Assay: NCI In Vivo Anticancer Drug Screen. Data for tumor model Lymphoma AKR (Transplanted) (intraperitoneal) in AKR/Lw mice
Conditions: endpoint: median survival time, higher = longer survival
Description: The antitumor activity of compounds was measured in mice bearing transplantable tumors. Survival or tumor size were measured and the results are expressed as the measurement made in the treated group (T) divided by the measurement made in the vehicle treated control group (C). The tumor model used in this assay is Lymphoma AKR (Transplanted) (intraperitoneal) in AKR/Lw mice

[1] = dose: 5.0 mg/kg/injection, schedule: Q01DX009 (ip), vehicle: saline
[2] = dose: 10.0 mg/kg/injection, schedule: Q01DX009 (ip), vehicle: saline
[3] = dose: 25.0 mg/kg/injection, schedule: Q01DX001 (ip), vehicle: saline
[4] = dose: 37.5 mg/kg/injection, schedule: Q04DX003 (ip), vehicle: saline
[5] = dose: 400.0 mg/kg/injection, schedule: Q01DX001 (ip), vehicle: saline
[6] = dose: 25.0 mg/kg/injection, schedule: Q04DX003 (ip), vehicle: saline
[7] = dose: 50.0 mg/kg/injection, schedule: Q04DX003 (ip), vehicle: saline
[8] = dose: 100.0 mg/kg/injection, schedule: Q01DX001 (ip), vehicle: saline
[9] = dose: 100.0 mg/kg/injection, schedule: Q04DX003 (ip), vehicle: saline
[10] = dose: 200.0 mg/kg/injection, schedule: Q01DX001 (ip), vehicle: saline

With `O=P1(NCCCl)OCCCN1CCCl` (stereo not given) the T/C [1] was 108 % of control, the T/C (dose: 6.25 mg/kg/injection, schedule: Q04DX003 (ip), vehicle: saline) was 96 % of control and the T/C [2] was 110 % of control and 113 % of control. The T/C (dose: 12.5 mg/kg/injection, schedule: Q04DX003 (ip), vehicle: saline) was 96 % of control, the T/C (dose: 18.7 mg/kg/injection, schedule: Q01DX001 (ip), vehicle: saline) was 95 % of control and the T/C (dose: 18.75 mg/kg/injection, schedule: Q01DX001 (ip), vehicle: saline) was 97 % of control. For the same molecule, the T/C [3] was 120 % of control, the T/C (dose: 37.5 mg/kg/injection, schedule: Q01DX001 (ip), vehicle: saline) was 95 % of control and 113 % of control and the T/C [4] was 95 % of control. The T/C (dose: 50.0 mg/kg/injection, schedule: Q01DX001 (sc), vehicle: steriod suspending solution) was 103 % of control, the T/C (dose: 54.0 mg/kg/injection, schedule: Q01DX001 (ip), vehicle: saline with Tween-80) was 162 % of control and the T/C (dose: 54.0 mg/kg/injection, schedule: Q07DX002 (ip), vehicle: water) was 155 % of control. The T/C (dose: 60.0 mg/kg/injection, schedule: Q01DX009 (ip), vehicle: saline) was 115 % of control, the T/C (dose: 75.0 mg/kg/injection, schedule: Q07DX003 (ip), vehicle: saline) was 168 % of control and 184 % of control and 186 % of control and the T/C (dose: 80.0 mg/kg/injection, schedule: Q01DX009 (ip), vehicle: saline) was 90 % of control. The T/C (dose: 100.0 mg/kg/injection, schedule: Q07DX003 (ip), vehicle: saline) was 189 % of control, the T/C (dose: 108.0 mg/kg/injection, schedule: Q01DX001 (ip), vehicle: saline with Tween-80) was 346 % of control and the T/C (dose: 108.0 mg/kg/injection, schedule: Q07DX002 (ip), vehicle: water) was 355 % of control. For the same molecule, the T/C (dose: 125.0 mg/kg/injection, schedule: Q01DX001 (ip), vehicle: saline) was 113 % of control and 153 % of control and 222 % of control, the T/C (dose: 125.0 mg/kg/injection, schedule: Q01DX001 (sc), vehicle: steriod suspending solution) was 153 % of control and the T/C (dose: 125.0 mg/kg/injection, schedule: Q04DX003 (ip), vehicle: saline) was 182 % of control and 236 % of control. For the same molecule, the T/C (dose: 125.0 mg/kg/injection, schedule: Q07DX003 (ip), vehicle: saline) was 157 % of control, the T/C (dose: 216.0 mg/kg/injection, schedule: Q01DX001 (ip), vehicle: saline with Tween-80) was 375 % of control and the T/C (dose: 216.0 mg/kg/injection, schedule: Q07DX002 (ip), vehicle: water) was 333 % of control. The T/C (dose: 250.0 mg/kg/injection, schedule: Q01DX001 (ip), vehicle: saline) was 120 % of control and 222 % of control, the T/C (dose: 250.0 mg/kg/injection, schedule: Q01DX001 (sc), vehicle: steriod suspending solution) was 120 % of control and the T/C (dose: 250.0 mg/kg/injection, schedule: Q04DX003 (ip), vehicle: saline) was 221 % of control and 236 % of control. For the same molecule, the T/C (dose: 300.0 mg/kg/injection, schedule: Q04DX003 (ip), vehicle: saline) was 105 % of control, the T/C [5] was 86 % of control and the T/C (dose: 400.0 mg/kg/injection, schedule: Q01DX001 (sc), vehicle: steriod suspending solution) was 123 % of control. For the same molecule, the T/C (dose: 432.0 mg/kg/injection, schedule: Q01DX001 (ip), vehicle: saline with Tween-80) was 375 % of control and the T/C (dose: 600.0 mg/kg/injection, schedule: Q01DX001 (ip), vehicle: saline) was 111 % of control.
For `CS(=O)(=O)OCCCCOS(C)(=O)=O`, the T/C (dose: 0.5 mg/kg/injection, schedule: Q01DX009 (ip), vehicle: Klucel (hydroxypropylcellulose) (HPC)) was 100 % of control, the T/C (dose: 0.75 mg/kg/injection, schedule: Q01DX009 (ip), vehicle: saline) was 112 % of control and the T/C (dose: 1.0 mg/kg/injection, schedule: Q01DX009 (ip), vehicle: Klucel (hydroxypropylcellulose) (HPC)) was 120 % of control. For the same molecule, the T/C (dose: 1.5 mg/kg/injection, schedule: Q01DX009 (ip), vehicle: saline) was 116 % of control, the T/C (dose: 2.0 mg/kg/injection, schedule: Q01DX009 (ip), vehicle: Klucel (hydroxypropylcellulose) (HPC)) was 120 % of control and the T/C (dose: 2.5 mg/kg/injection, schedule: Q01DX009 (ip), vehicle: saline) was 112 % of control. For the same molecule, the T/C (dose: 3.0 mg/kg/injection, schedule: Q01DX009 (ip), vehicle: saline) was 108 % of control, the T/C (dose: 3.75 mg/kg/injection, schedule: Q01DX009 (ip), vehicle: saline) was 100 % of control and 116 % of control and the T/C (dose: 4.0 mg/kg/injection, schedule: Q01DX009 (ip), vehicle: Klucel (hydroxypropylcellulose) (HPC)) was 107 % of control. The T/C (dose: 5.0 mg/kg/injection, schedule: Q01DX009 (ip), vehicle: Klucel (hydroxypropylcellulose) (HPC)) was 102 % of control, the T/C [1] was 96 % of control and the T/C (dose: 7.5 mg/kg/injection, schedule: Q01DX009 (ip), vehicle: saline) was 86 % of control and 89 % of control. The T/C (dose: 8.0 mg/kg/injection, schedule: Q01DX009 (ip), vehicle: Klucel (hydroxypropylcellulose) (HPC)) was 100 % of control, the T/C (dose: 8.0 mg/kg/injection, schedule: Q01DX009 (ip), vehicle: saline) was 115 % of control and the T/C [2] was 104 % of control. For the same molecule, the T/C (dose: 10.0 mg/kg/injection, schedule: Q04DX003 (ip), vehicle: Klucel (hydroxypropylcellulose) (HPC)) was 104 % of control, the T/C (dose: 12.5 mg/kg/injection, schedule: Q01DX001 (ip), vehicle: saline) was 102 % of control and 110 % of control (2×) and the T/C (dose: 12.5 mg/kg/injection, schedule: Q01DX009 (ip), vehicle: Klucel (hydroxypropylcellulose) (HPC)) was 89 % of control. For the same molecule, the T/C (dose: 12.5 mg/kg/injection, schedule: Q01DX009 (ip), vehicle: saline) was 87 % of control, the T/C (dose: 15.0 mg/kg/injection, schedule: Q01DX009 (ip), vehicle: saline) was 105 % of control and the T/C (dose: 16.0 mg/kg/injection, schedule: Q01DX009 (ip), vehicle: saline) was 103 % of control. For the same molecule, the T/C (dose: 20.0 mg/kg/injection, schedule: Q01DX009 (ip), vehicle: saline) was 113 % of control, the T/C (dose: 20.0 mg/kg/injection, schedule: Q04DX003 (ip), vehicle: Klucel (hydroxypropylcellulose) (HPC)) was 91 % of control and the T/C [3] was 97 % of control and 100 % of control and 114 % of control. The T/C (dose: 25.0 mg/kg/injection, schedule: Q01DX009 (ip), vehicle: Klucel (hydroxypropylcellulose) (HPC)) was 89 % of control, the T/C (dose: 25.0 mg/kg/injection, schedule: Q01DX009 (ip), vehicle: saline) was 89 % of control and the T/C (dose: 25.0 mg/kg/injection, schedule: Q04DX003 (ip), vehicle: other) was 108 % of control. The T/C [6] was 101 % of control, the T/C (dose: 30.0 mg/kg/injection, schedule: Q01DX009 (ip), vehicle: saline) was 104 % of control and the T/C [4] was 90 % of control. The T/C (dose: 40.0 mg/kg/injection, schedule: Q04DX003 (ip), vehicle: Klucel (hydroxypropylcellulose) (HPC)) was 100 % of control, the T/C (dose: 50.0 mg/kg/injection, schedule: Q01DX009 (ip), vehicle: Klucel (hydroxypropylcellulose) (HPC)) was 89 % of control and the T/C (dose: 50.0 mg/kg/injection, schedule: Q04DX003 (ip), vehicle: other) was 104 % of control. The T/C [7] was 109 % of control, the T/C [8] was 97 % of control and 105 % of control and the T/C (dose: 100.0 mg/kg/injection, schedule: Q04DX003 (ip), vehicle: Klucel (hydroxypropylcellulose) (HPC)) was 100 % of control. For the same molecule, the T/C (dose: 100.0 mg/kg/injection, schedule: Q04DX003 (ip), vehicle: other) was 91 % of control, the T/C [9] was 92 % of control and the T/C [10] was 97 % of control. The T/C (dose: 200.0 mg/kg/injection, schedule: Q04DX003 (ip), vehicle: Klucel (hydroxypropylcellulose) (HPC)) was 105 % of control, the T/C (dose: 400.0 mg/kg/injection, schedule: Q04DX003 (ip), vehicle: Klucel (hydroxypropylcellulose) (HPC)) was 100 % of control and the T/C (dose: 600.0 mg/kg/injection, schedule: Q01DX001 (ip), vehicle: Klucel (hydroxypropylcellulose) (HPC)) was 106 % of control.
For `CC12CC3CC(C1)CC(C(=O)O)(C3)C2`, the T/C [6] was 97 % of control, the T/C [7] was 102 % of control and the T/C [8] was 100 % of control. For the same molecule, the T/C [9] was 100 % of control, the T/C [10] was 101 % of control and the T/C [5] was 108 % of control.

Source: PubChem BioAssay AID190 (DTP/NCI, 2004)
